Data taken from patent publication US20230241088A1, “COMPOSITION FOR PREVENTING OR TREATING LUNG CANCER COMPRISING ORTHO-TOPOLIN RIBOSIDE AS ACTIVE INGREDIENT” (CHUNG-ANG UNIVERSITY INDUSTRY-ACADEMY COOPERATION FOUNDATION, priority 2022, published 2023).

Legend:
Format in all cases: cell-based, Human
H1437 = assay: MTT cell viability assay, H1437
Procedure: (§1) Human NSCLC cell lines A549, H1437, H2087, H522, and HCC827 were obtained from the Korean Cell Line Bank (KCLB, Seoul, Korea). These cells were cultured in RPMI-1640 medium (Gibco, N.Y., USA) supplemented with 10% FBS (Gibco) and 1% penicillin-streptomycin (HyClone Laboratories, Logan, Utah, USA). All cell lines were cultured under standard conditions (5% CO2, humid environment, 37° C.). A549 cells were seeded at a density of 1×10^4 cells/well and H1437, H2087, H522, HCC827, and MRCS cells at a density of 2×10^4 cells/well in 96-well plates and were cultured until cells reach approximately 70-80% confluency. The NSCLC cells were treated with plant hormones for 48 hours. Stock solution of each plant hormone was diluted with culture medium, wherein concentrations of DMSO, water, methanol, and ethanol in the culture medium were below 1% (v/v). The half-maximal inhibitory concentration (IC50) was calculated using CompuSyn software (ComboSyn Inc., Paramus, N.J., USA).
(§2) The inhibitory effect of plant hormones and their derivatives was investigated on 5 NSCLC cell lines (A549, H1437, H2087, H522, and HCC827). The NSCLC cells were treated with ABA, Cor, ethephon, GR-24, IAA, KR, MJ, N6b, N6i, oTR, and SS-HCS at concentrations of 0.1, 0.5, 1, 5, 10, 50, and 100 μM. Cell viability and IC50 values for 48 hours were investigated by performing the MTT assay.

HCC827 = assay: MTT cell viability assay, HCC827
Procedure: as §1, §2

H522 = assay: MTT cell viability assay, H522
Procedure: as §1, §2

A549 = assay: MTT cell viability assay, A549
Procedure: as §1, §2

H2087 = assay: MTT cell viability assay, H2087
Procedure: as §1, §2

NSCLC cells = assay: MTT cell viability assay, NSCLC cells overall; details: Homo sapiens; 48 hours, MTT assay, 5 NSCLC cell lines
Procedure: as §1, §2

[1] = Homo sapiens, NCI-H1437, 48 hours
[2] = Homo sapiens, NCI-H522, 48 hours
[3] = Homo sapiens, NCI-H2087, 48 hours

IC50 (H1437; 48 hours) [µM]	IC50 (HCC827; 48 hours) [µM]	IC50 (H522; 48 hours) [µM]	IC50 (A549; 48 hours) [µM]	IC50 (H2087; 48 hours) [µM]	Compound	IC50 (NSCLC cells) [µM]	IC50 (H1437; [1]) [µM]	IC50 (HCC827; Homo sapiens, HCC827, 48 hours) [µM]	IC50 (H522; [2]) [µM]	IC50 (A549; Homo sapiens, A549, 48 hours) [µM]	IC50 (H2087; [3]) [µM]
34.7 ± 2.04	72.3 ± 13.6	> 100	87.5 ± 15.5	85.4 ± 8.81	CC[C@@H](C(C)C)[C@@H](O)[C@H](O)[C@@H](C)[C@H]1CC[C@H]2[C@@H]3CC(=O)[C@H]4C[C@H](O)[C@H](O)C[C@]4(C)[C@H]3CC[C@]12C [SS-HCS, SS-homocastasterone]						
					OC[C@H]1O[C@@H](n2cnc3c(NCc4ccco4)ncnc32)[C@H](O)[C@@H]1O [KR, Kinetin riboside]	< 100	76.8 ± 13.7	33.13 ± 0.14	73 ± 10.9	12.3 ± 1.42	98.5 ± 6.72
> 100	> 100	> 100	> 100	> 100	CC1=C[C@H](O/C=C2/C(=O)O[C@@H]3c4ccccc4C[C@H]23)OC1=O [GR-24, Gerald Rosebery-24]						
					OC[C@H]1O[C@@H](n2cnc3c(NCc4ccccc4)ncnc32)[C@H](O)[C@@H]1O [N^6b, N^6-benzyladenosine, reference compound]	< 100					
					O=P(O)(O)CCCl [Ethephon, ethephon]		> 100	> 100	> 100	> 100	> 100
					CC/C=C\CC1C(=O)CCC1CC(=O)OC (stereo not shown) [MJ, methyl jasmonate]		> 100	> 100	> 100	> 100	> 100
					CC1=CC(=O)CC(C)(C)[C@@]1(O)/C=C/C(C)=C\C(=O)O [ABA, abscisic acid]		> 100	> 100	> 100	> 100	> 100

Compound	IC50 (H1437; 48 hours) [µM]	IC50 (HCC827; 48 hours) [µM]	IC50 (H522; 48 hours) [µM]	IC50 (A549; 48 hours) [µM]	IC50 (H2087; 48 hours) [µM]	IC50 (NSCLC cells) [µM]	IC50 (H1437; [1]) [µM]	IC50 (HCC827; Homo sapiens, HCC827, 48 hours) [µM]	IC50 (H522; [2]) [µM]	IC50 (A549; Homo sapiens, A549, 48 hours) [µM]	IC50 (H2087; [3]) [µM]
CC[C@H]1C=C(C(=O)N[C@@]2(C(=O)O)C[C@@H]2CC)[C@H]2CCC(=O)[C@H]2C1 [Cor, coronatine]	> 100	> 100	> 100	> 100	> 100						
